Here are results for 18 molecules from ChEMBL document CHEMBL4765454, “Betulinic acid derived amides are highly cytotoxic, apoptotic and selective” (Eur J Med Chem, 2020).

Molecules are shown by their SMILES.

In data set [1] the test system is NIH3T3. Description: Cytotoxicity against mouse NIH3T3 cells assessed as reduction in cell viability incubated for 72 hrs by SRB assay. Format: cell-based.
For data set [2], the system named is HT-29. The data set is described as follows: Cytotoxicity against human HT-29 cells assessed as reduction in cell viability incubated for 72 hrs by SRB assay. Format: functional, cell-based. For orientation: In SRB staining, fixed cells bind dye roughly in proportion to their protein.
The test system of data set [3] is A-375. The data set is described as follows: Cytotoxicity against human A-375 cells assessed as reduction in cell viability incubated for 72 hrs by SRB assay. It is filed as functional, cell-based.
Data set [4] deals with A2780. Description: Cytotoxicity against human A2780 cells assessed as reduction in cell viability incubated for 72 hrs by SRB assay. It is filed as functional, cell-based.
The subject of data set [5] is FaDu. The data set is described as follows: Cytotoxicity against human FaDu cells assessed as reduction in cell viability incubated for 72 hrs by SRB assay. It is filed as functional, cell-based.
The test system of data set [6] is MCF7. The data set is described as follows: Cytotoxicity against human MCF7 cells assessed as reduction in cell viability incubated for 72 hrs by SRB assay. It is filed as functional, cell-based.
Data set [7] can be described thus: Selectivity ratio of EC50 for mouse NIH3T3 cells to EC50 for human MCF7 cells. Format: toxicity. Conditions: NIH3T3 cells versus MCF7 cells, read-out: Ratio EC50.
Data set [8] is described as follows: Selectivity ratio of EC50 for mouse NIH3T3 cells to EC50 for human A375 cells. It is filed as toxicity. Particulars: NIH3T3 cells versus A375 cells, read-out: Ratio EC50.
Data set [9] in a line: Selectivity ratio of EC50 for mouse NIH3T3 cells to EC50 for human A2780 cells. Format: toxicity. Conditions: NIH3T3 cells versus A2780 cells, read-out: Ratio EC50.
Data set [10] in a line: Selectivity ratio of EC50 for mouse NIH3T3 cells to EC50 for human HT-29 cells. Format: toxicity. Conditions: NIH3T3 cells versus HT-29 cells, read-out: Ratio EC50.
Data set [11] is described as follows: Selectivity ratio of EC50 for mouse NIH3T3 cells to EC50 for human FaDu cells.
[12] abbreviates: Mus musculus, NIH3T3, 72 h, read-out: EC50.
The mark [13] stands for this setting: Homo sapiens, HT-29, 72 h, read-out: EC50.
The mark [14] stands for this setting: Homo sapiens, A-375, 72 h, read-out: EC50.
Where [15] appears, read: Homo sapiens, A2780, 72 h, read-out: EC50.
Where [16] appears, read: Homo sapiens, FaDu, 72 h, read-out: EC50.
The mark [17] stands for this setting: Homo sapiens, MCF7, 72 h, read-out: EC50.

Consider `CC(=O)[C@@H]1CC[C@]2(C(=O)O)CC[C@]3(C)[C@H](CC[C@@H]4[C@@]5(C)C[C@H](O)[C@H](O)C(C)(C)[C@@H]5CC[C@]43C)[C@@H]12`, for which the EC50 in data set [1] (setting [12]), in data set [2] (setting [13]), in [3] (setting [14]), in data set [4] (setting [15]), in [5] (setting [16]) and in data set [6] (setting [17]) was above 30 µM in each case.

For the molecule `C=C(C)[C@@H]1CC[C@]2(C(=O)O)CC[C@]3(C)[C@H](CC[C@@H]4[C@@]5(C)CC[C@H](OC(C)=O)C(C)(C)[C@@H]5CC[C@]43C)[C@@H]12`, the selectivity ratio stood at 2.7 in data set [7], 1.6 in data set [8], 1.6 in data set [9] and 1.4 in data set [10]. Further, the EC50 was above 30 µM in data set [1] (setting [12]), 21.3 µM in data set [2] (setting [13]), 19.2 µM in data set [3] (setting [14]) and 7.2 µM in [5] (setting [16]). Further, in data set [11], the “Ratio EC50” value came out at 4.2.

In the case of `CC(=O)[C@@H]1CC[C@]2(C(=O)O)CC[C@]3(C)[C@H](CC[C@@H]4[C@@]5(C)C=C(O)C(=O)C(C)(C)[C@@H]5CC[C@]43C)[C@@H]12`, the half-maximal effective concentration (EC50) in data set [1] (setting [12]) was above 30 µM; in data set [2] (setting [13]), above 30 µM; in data set [3] (setting [14]), above 30 µM; in data set [4] (setting [15]) it was 20.6 µM; in data set [5] (setting [16]), above 30 µM; in data set [6] (setting [17]), 24.8 µM.

For the molecule `C=C(C)[C@@H]1CC[C@]2(C(=O)Nc3cccc4ncccc34)CC[C@]3(C)[C@H](CC[C@@H]4[C@@]5(C)CC[C@H](OC(C)=O)C(C)(C)[C@@H]5CC[C@]43C)[C@@H]12`, the selectivity ratio in [7] is 2.5; in [9] it was 5.9; in data set [10], 1. Moreover, the half-maximal effective concentration (EC50) in data set [1] (setting [12]) was above 30 µM; in data set [2] (setting [13]), above 30 µM; in data set [3] (setting [14]), 3.05 µM; in data set [4] (setting [15]) it was 5.08 µM; in data set [5] (setting [16]), 5.18 µM; in data set [6] (setting [17]), 12.1 µM. In [11], the “Ratio EC50” value is on record as 5.8.

As to `C=C(C)[C@@H]1CC[C@]2(C(=O)O)CC[C@]3(C)[C@H](CC[C@@H]4[C@@]5(C)CC[C@H](O)C(C)(C)[C@@H]5CC[C@]43C)[C@@H]12` [BETULINIC ACID], the EC50 in data set [1] (setting [12]), in data set [2] (setting [13]), in [3] (setting [14]), in data set [4] (setting [15]), in data set [5] (setting [16]) and in [6] (setting [17]) was above 30 µM each time.

On to `CC(=O)O[C@H]1CC[C@]2(C)[C@H]3CC[C@@H]4[C@H]5[C@H](C(C)=O)CC[C@]5(C(=O)Nc5cncc6ccccc56)CC[C@@]4(C)[C@]3(C)CC[C@H]2C1(C)C`, for which the results for the selectivity ratio in data set [7], in data set [9] and in data set [10] were 3.2, 3.8 and 1, respectively. The EC50 was above 30 µM in data set [1] (setting [12]); above 30 µM in [2] (setting [13]); 5.66 µM in [3] (setting [14]); 7.84 µM in data set [4] (setting [15]); 7.67 µM in data set [5] (setting [16]); 9.34 µM in [6] (setting [17]). The “Ratio EC50” value in data set [11] came out at 3.9.

Regarding `CC(=O)O[C@H]1CC[C@]2(C)[C@H]3CC[C@@H]4[C@H]5[C@H](C(C)=O)CC[C@]5(C(=O)NCc5ccccc5)CC[C@@]4(C)[C@]3(C)CC[C@H]2C1(C)C`, the EC50 entry in data set [1] (nih3t3), in data set [2] (ht-29), in data set [3] (a-375), in [4] (a2780), in data set [5] (fadu) and in data set [6] (mcf7) was “Nd(Insoluble)” throughout.

As to `CC(=O)[C@@H]1CC[C@]2(C(=O)O)CC[C@]3(C)[C@H](CC[C@@H]4[C@@]5(C)CC[C@H](O)C(C)(C)[C@@H]5CC[C@]43C)[C@@H]12` [PLATANIC ACID], the EC50 in [1] (setting [12]), in [2] (setting [13]), in [3] (setting [14]), in [4] (setting [15]), in data set [5] (setting [16]) and in [6] (setting [17]) was above 30 µM throughout.

Take `CC(=O)[C@@H]1CC[C@]2(C(=O)O)CC[C@]3(C)[C@H](CC[C@@H]4[C@@]5(C)CCC(=O)C(C)(C)[C@@H]5CC[C@]43C)[C@@H]12`: the EC50 in data set [1] (setting [12]), in data set [2] (setting [13]), in [3] (setting [14]), in data set [4] (setting [15]), in data set [5] (setting [16]) and in data set [6] (setting [17]) was above 30 µM each time.

With `C=C(C)[C@@H]1CC[C@]2(C(=O)Nc3cncc4ccccc34)CC[C@]3(C)[C@H](CC[C@@H]4[C@@]5(C)C[C@H](OC(C)=O)[C@H](OC(C)=O)C(C)(C)[C@@H]5CC[C@]43C)[C@@H]12`, the values for the selectivity ratio in data set [7], in data set [9] and in data set [10] were 4.1, 6.3 and 2, respectively. The EC50 in data set [1] (setting [12]) is above 30 µM; in [2] (setting [13]), above 15 µM; in [3] (setting [14]), 3.34 µM; in data set [4] (setting [15]) it was 4.76 µM; in data set [5] (setting [16]), 4.02 µM; in data set [6] (setting [17]), 7.33 µM. Also, the “Ratio EC50” value in [11] stood at 7.5.

Turning to `C=C(C)[C@@H]1CC[C@]2(C(=O)O)CC[C@]3(C)[C@H](CC[C@@H]4[C@@]5(C)CCC(=O)C(C)(C)[C@@H]5CC[C@]43C)[C@@H]12` [BETUNOLIC ACID], the EC50 in data set [1] (setting [12]) was determined as 19.4 µM; in [2] (setting [13]), 18.5 µM; in [3] (setting [14]), 14.3 µM; in data set [4] (setting [15]), 4.7 µM; in data set [5] (setting [16]), 17.4 µM; in data set [6] (setting [17]), 12 µM.

In the case of `COc1cccc2c1C(=O)c1c(O)c3c(c(O)c1C2=O)C[C@@](O)(C(=O)CO)C[C@@H]3O[C@H]1C[C@H](N)[C@H](O)[C@H](C)O1` [DOXORUBICIN], the EC50 is 1.3 µM in [1] (setting [12]) and above 30 µM in data set [2] (setting [13]).

For `CC(=O)O[C@H]1C[C@]2(C)[C@H]3CC[C@@H]4[C@H]5[C@H](C(C)=O)CC[C@]5(C(=O)Nc5cncc6ccccc56)CC[C@@]4(C)[C@]3(C)CC[C@H]2C(C)(C)[C@H]1OC(C)=O`, the selectivity ratio in [7] was found to be 4.3; in [9], 4.9; in data set [10], 1.6. The EC50 in data set [1] (setting [12]) was above 30 µM; in data set [2] (setting [13]), 18.4 µM; in data set [3] (setting [14]) it was 4.88 µM; in [4] (setting [15]), 6.15 µM; in [5] (setting [16]) it was 6.41 µM; in data set [6] (setting [17]), 6.96 µM. Besides, in data set [11], the “Ratio EC50” value is recorded as 4.7.

As for `CC(=O)O[C@H]1CC[C@]2(C)[C@H]3CC[C@@H]4[C@H]5[C@H](C(C)=O)CC[C@]5(C(=O)O)CC[C@@]4(C)[C@]3(C)CC[C@H]2C1(C)C`, the EC50 in data set [1] (setting [12]), in data set [2] (setting [13]), in data set [3] (setting [14]), in data set [4] (setting [15]), in data set [5] (setting [16]) and in data set [6] (setting [17]) was above 30 µM throughout.

Take `CC(=O)O[C@H]1C[C@]2(C)[C@H]3CC[C@@H]4[C@H]5[C@H](C(C)=O)CC[C@]5(C(=O)NCc5ccccc5)CC[C@@]4(C)[C@]3(C)CC[C@H]2C(C)(C)[C@H]1OC(C)=O`: the selectivity ratio in data set [7] was 5.8; in data set [9], 12.7; in data set [10], 4.2. Further, the EC50 is above 30 µM in data set [1] (setting [12]); 7.22 µM in [2] (setting [13]); 2.9 µM in data set [3] (setting [14]); 2.36 µM in data set [4] (setting [15]); 5.57 µM in data set [5] (setting [16]); 5.2 µM in data set [6] (setting [17]). Besides, the “Ratio EC50” value in [11] was 5.4.

As to `C=C(C)[C@@H]1CC[C@]2(C(=O)NCc3ccccc3)CC[C@]3(C)[C@H](CC[C@@H]4[C@@]5(C)CC[C@H](OC(C)=O)C(C)(C)[C@@H]5CC[C@]43C)[C@@H]12`, the selectivity ratio in [7] came out at 1.1; in data set [9], 4.8; in data set [10], 1. For the same molecule, the EC50 in data set [1] (setting [12]) is above 30 µM; in data set [2] (setting [13]), above 30 µM; in data set [3] (setting [14]), 4.05 µM; in data set [4] (setting [15]), 6.29 µM; in data set [5] (setting [16]), 9.59 µM; in data set [6] (setting [17]) it was 26.8 µM. Further, in data set [11], the “Ratio EC50” value was found to be 3.1.

Regarding `CC(=O)O[C@H]1C[C@]2(C)[C@H]3CC[C@@H]4[C@H]5[C@H](C(C)=O)CC[C@]5(C(=O)Nc5cccc6ncccc56)CC[C@@]4(C)[C@]3(C)CC[C@H]2C(C)(C)[C@H]1OC(C)=O`, the concentration for a half-maximal effect (EC50) entry in [1] (nih3t3), in data set [2] (ht-29), in data set [3] (a-375), in data set [4] (a2780), in [5] (fadu) and in [6] (mcf7) was “Nd(Insoluble)” in each case.

In the case of `CC(=O)O[C@H]1CC[C@]2(C)[C@H]3CC[C@@H]4[C@H]5[C@H](C(C)=O)CC[C@]5(C(=O)Nc5cccc6ncccc56)CC[C@@]4(C)[C@]3(C)CC[C@H]2C1(C)C`, the results for the selectivity ratio in data set [7], in [9] and in data set [10] were 4.3, 5.6 and 1, respectively. Also, the EC50 in data set [1] (setting [12]) is above 30 µM; in data set [2] (setting [13]), above 30 µM; in data set [3] (setting [14]) it was 4.6 µM; in data set [4] (setting [15]), 5.4 µM; in data set [5] (setting [16]), 6.42 µM; in data set [6] (setting [17]), 7.06 µM. Besides, the “Ratio EC50” value in data set [11] is on record as 4.7.

In general, EC50 refers to the midpoint of the concentration-response curve.
